The test system of one test is Streptococcus agalactiae. Description: bactericidal activity towards Streptococcus agalactiae in milk. It counts as cell-based. The protocol:
(§1) All tests in the following examples were performed at 37° C. The efficacy of the enhanced broad range bactericides was determined by assaying bactericidal activity as measured by the percent bacterial survival after treatment with the bactericide. Generally, after incubation of a 10^7 cell per ml suspension of target species with the novel bactericide for specified lengths of time, bacteria were collected by centrifugation for 2 minutes. […] Surviving bacteria were determined by scoring colony forming units (CFU) after incubation for 24-48 hours at 37° C. An effective bactericide according to this invention is one which allows less than 0.1% of the initial viable count of the bacteria to survive.
However, the combination of the two agents, 0.1% monolaurin and nisin 0.2 μg/ml, is extremely potent towards S. agalactiae. […] Thus, when the application of nisin is limited by its available activity, a bactericide comprising nisin with a surfactant can be expected to be more useful.
(§2) Incubations were in milk at 37° C.

A further test deals with E. coli. Briefly: bactericidal activity, percent bacterial survival, E. coli suspension. The test is classed as cell-based, Escherichia coli. To be noted: for Percentage E. coli Survival at 2 hours: 20 mM Tris pH 8.0, 37° C. On the procedure:
(§3) All tests in the following examples were performed at 37° C. The efficacy of the enhanced broad range bactericides was determined by assaying bactericidal activity as measured by the percent bacterial survival after treatment with the bactericide. Generally, after incubation of a 10^7 cell per ml suspension of target species with the novel bactericide for specified lengths of time, bacteria were collected by centrifugation for 2 minutes. […] Surviving bacteria were determined by scoring colony forming units (CFU) after incubation for 24-48 hours at 37° C.
The effects of the bactericide were measured as a function of percentage bacteria survival after 2 hours.
Incubations were performed in 20 mM Tris, pH 7.0 at 37° C.

The next test concerns Staphyloccus aureus. Description: bactericidal activity, percent survival, Staphylococcus aureus. It counts as cell-based. On the procedure:
as §1
Incubations were performed in 50 mM sodium acetate buffer, pH 5.0 or 20 m
TrisHCl buffer, pH 8.0 at 37° C.

Test [1] concerns Streptococcus mutans. Description: bactericidal activity, percent survival, Streptococcus mutans in Tris buffer. The following applies: for % Survival (S. mutans kinetics): nisin 0, 1.0 mM EDTA, Tris-HCl pH 7.3. It counts as cell-based.
Description: (§6) All tests in the following examples were performed at 37° C. The efficacy of the enhanced broad range bactericides was determined by assaying bactericidal activity as measured by the percent bacterial survival after treatment with the bactericide. Generally, after incubation of a 10^7 cell per ml suspension of target species with the novel bactericide for specified lengths of time, bacteria were collected by centrifugation for 2 minutes. The bacterial pellet was washed free of the bactericide with a rescue buffer, termed herein Phage buffer (50 mM Tris-HCl buffer pH 7.8, 1 mM MgSO4, 4 mM CaCl2, 0.1 M Nacl, and 0.1% gelatin), resuspended and serially diluted into Phage buffer, and 100 μl of the suspended bacteria were spread on nutrient agar plates. Surviving bacteria were determined by scoring colony forming units (CFU) after incubation for 24-48 hours at 37° C.
The suspensions were incubated for various times ranging from 0.5 to 60 minutes with the bactericides. The bactericidal efficacy of the bactericides was estimated by determining the percent survival of bacteria.
Incubations were performed in 20 mM TrisHCl, pH 7.3 at 37° C.
The subject of the next test is Coryneform bacteria. Briefly: bactericidal activity, percent survival, axillary Coryneform bacteria. It counts as cell-based. The following applies: 20 mM Tris-HCl pH 8.0. On the procedure:
as §1
(§4) Incubations were performed in 20 mM TrisHCl, pH 8.0 at 37° C.

For a further test, the system named is S. typhimurium. Briefly: bactericidal activity, percent bacterial survival, S. typhimurium suspension. It counts as cell-based, Salmonella typhimurium. The following applies: for Percentage S. typhimurium Survival at 3 hours: 20 mM Tris pH 8.0, 37° C. On the procedure:
as §3
The control (Test #1) is identical to the control of Example 1 (Table 1).

Test [2] deals with Listeria monocytogenes. Briefly: bactericidal activity, percent survival, Listeria monocytogenes in Tris buffer. It counts as cell-based. The following applies: 20 mM Tris-HCl pH 8.0. On the procedure: as §1, §4
Test [3] has as its system S. typhimurium on chicken muscle. Briefly: bactericidal activity towards S. typhimurium on chicken muscle (unadhered cells). The test is classed as cell-based, Salmonella typhimurium. The protocol:
as §1
Incubations were performed in either 50 mM sodium acetate, pH 5.0, or 20 mM […], pH 8.0 at 37° C.
Cubes of chicken muscle were cleansed with sodium hypochlorite and povidone iodine prior to use. To inoculate the tissue, the cubes of chicken muscle were dipped into a 10^8 cells/ml suspension of S. typhimurium in 20 mM Tris HCl, pH 8.0. Excess moisture was removed from dipped cubes by tapping. The chicken samples were placed into sufficient buffer containing the nisin composition to cover the tissue and incubated for 2 hours at 37° C. after which the tissue was removed to sufficient Phage buffer to cover the tissue. The bacteria remaining in the test solution were collected by centrifugation, washed with Phage buffer, and combined with bacteria washed from the tissue by Phage buffer. The combined samples (termed "unadhered" cells) were serially diluted and 100μl aliquots were plated for determination of surviving bacteria.
(§5) Cubes of chicken muscle were cleansed with sodium hypochlorite and povidone iodine prior to use. To inoculate the tissue, the cubes of chicken muscle were dipped into a 10^8 cells/ml suspension of S. typhimurium in 20 mM Tris HCl, pH 8.0. Excess moisture was removed from dipped cubes by tapping. The tissue was placed into sufficient buffer containing the nisin compositions to cover the tissue, and incubated for 2 hours at 37° C. after which the tissue was removed to sufficient Phage buffer to cover the tissue. The bacteria remaining in the test solution were collected by centrifugation, washed with Phage buffer, and combined with bacteria washed from the tissue by Phage buffer. The combined samples (termed "unadhered" cells) were serially diluted and 100 μl aliquots were plated for determination of surviving bacteria.
as §5, with “cleaned” for “cleansed”, “with” for “with sodium”, “50” for “20”, “sodium acetate buffer,” for “Tris HCl,”, “5.0.” for “8.0.”, “containing” for “containing the”

Another test concerns K. pneumoniae. Description: bactericidal activity, percent bacterial survival, K. pneumoniae suspension. It counts as cell-based, Klebsiella pneumoniae. To be noted: 20 mM Tris pH 8.0, 37° C. The protocol:
as §3
The effect was measured as a function of percentage bacterial survival after 2 hours.

Test [4] has as its system Listeria monocytogenes. Description: bactericidal activity towards Listeria monocytogenes in milk. It counts as cell-based. The protocol:
as §1
An example of where the application of nisin is limited by its available activity is illustrated by the data in Table 15B.
as §2

Test [5] concerns Streptococcus mutans. Description: rapid bactericidal activity towards Streptococcus mutans in the presence of divalent cation, 10% fetal calf serum. The test is classed as cell-based. The following applies: nisin 3, no EDTA, CaCl3 0 mM.
Description: as §6
Incubations performed in 10% Fetal Calf Serum at 37° C.

For the compound `CCCCCCCCCCCC(=O)OCC(O)CO` (stereo not drawn) [Monolaurin, monolaurin], the “bactericidal activity towards Streptococcus agalactiae” value in the test with Streptococcus agalactiae (monolaurin at concentrations up to 0.1%) is listed as “little significant bactericidal activity”. The “% survival at 2 h (S. agalactiae)” value is recorded as 100% in the test on Streptococcus agalactiae (nisin 0, monolaurin 0.01%, 37° C.) and 4.5% in the test with Streptococcus agalactiae (nisin 0, monolaurin 0.1%, 37° C.).

On to Triton X-100, for which the “Percentage E. coli Survival at 2 hours” value in the test on E. coli (nisin 0, EDTA 0, Triton X-100 1.0%) came out at 100%. Also, in the test on E. coli (tests #3 and #4, Table 4), the “bactericidal activity towards E. coli” value is reported as “no significant bactericidal activity”.

As for `O=C([O-])CN(CCN(CC(=O)[O-])CC(=O)O)CC(=O)O.[Na+].[Na+]` [EDTA], the “% Survival 2 hr (S. aureus)” value is on record as 100% in the test on Staphyloccus aureus (nisin 0, EDTA 0.3 mM, pH 8.0); 81% in the test with Staphyloccus aureus (nisin 0, EDTA 1.0 mM, pH 8.0); 100% with Staphyloccus aureus (nisin 0, EDTA 3.0 mM, pH 5.0); 100% in the test on Staphyloccus aureus (nisin 0, EDTA 3.0 mM, pH 8.0); 100% in the test with Staphyloccus aureus (nisin 0, EDTA 10 mM, pH 8.0); 100% in the test on Staphyloccus aureus (nisin 0, EDTA 30 mM, pH 8.0). For the same compound, the “% Survival (S. mutans kinetics)” value with Streptococcus mutans [1] (incubation 3 min) and in the test with Streptococcus mutans [1] (incubation 60 min) was 100% in each case. In the test on E. coli (nisin 0, EDTA 1.0 mM, 20 mM Tris pH 7.0), the “% survival at 1 min (E. coli)” value is given as 100%. Moreover, the “% Survival 2 hr (Coryneform bacteria)” value stood at 4.6% in the test with Coryneform bacteria (nisin 0, EDTA 0.3 mM); 3.6% in the test on Coryneform bacteria (nisin 0, EDTA 1.0 mM); 8% in the test on Coryneform bacteria (nisin 0, EDTA 3.0 mM); 36% in the test with Coryneform bacteria (nisin 0, EDTA 10 mM). In addition, the “% Survival at 2 hours (S. typhimurium)” value is 63% in the test with S. typhimurium (nisin 0, EDTA 1.0 mM, BSA 1.0%, 20 mM Tris pH 8.0); 8.7% with S. typhimurium (nisin 0, EDTA 2.0 mM, 20 mM Tris pH 8.0); 38.7% with S. typhimurium (nisin 0, EDTA 2.0 mM, 50 mM sodium acetate pH 5.0); 14% with S. typhimurium (nisin 0, EDTA 10 mM, 20 mM Tris pH 8.0); 15.2% in the test with S. typhimurium (nisin 0, EDTA 10 mM, 50 mM sodium acetate pH 5.0); 11.4% in the test on S. typhimurium (nisin 0, EDTA 50 mM, 20 mM Tris pH 8.0). The “% Survival at 2 hours (S. typhimurium)” value in the test with S. typhimurium (nisin 0, EDTA 50 mM, 50 mM sodium acetate pH 5.0) amounted to 3.5%; in the test on S. typhimurium (nisin 0, EDTA 100 mM, 20 mM Tris pH 8.0), 45%. Moreover, in the test with S. typhimurium (nisin 0, EDTA 20 mM), the “Percentage S. typhimurium Survival at 3 hours” value came out at 2.5%. In addition, the “% Survival after 2 hr (L. monocytogenes)” value in the test on Listeria monocytogenes [2] (nisin 0, EDTA 1.0 mM) turned out to be 84%. For the same compound, in test [3] (nisin 0, EDTA 1.0 mM, BSA 1.0%, pH 8.0), the “% Survival at 2 hours” value amounted to 27%. Besides, the “% Survival at 2 hours, unadhered cells” value in [3] (nisin 0, EDTA 10 mM, pH 5.0) is reported as 6.4%; in test [3] (nisin 0, EDTA 10 mM, pH 8.0) it was 5.2%. Further, the “% Survival at 2 hours (K. pneumoniae)” value in the test with K. pneumoniae (nisin 0, EDTA 20 mM) was determined as 22%.

Regarding monooleate, the “bactericidal activity towards L. monocytogenes” value in the test on Listeria monocytogenes [4] (monooleate by itself) is “no bactericidal activity”. The “% Survival 2 hr (L. monocytogenes)” value worked out at 67% in the test with Listeria monocytogenes [4] (nisin 0, monooleate 0.1%, 37° C.) and 63% with Listeria monocytogenes [4] (nisin 0, monooleate 1.0%, 37° C.).

Consider nisin, for which the “% Survival 2 hr (S. aureus)” value in the test with Staphyloccus aureus (nisin 3.0 μg/ml, EDTA 0, pH 5.0) worked out at 0.6%; with Staphyloccus aureus (nisin 3.0 μg/ml, EDTA 0, pH 8.0), 7.4%. Besides, in the test with Streptococcus mutans [1] (nisin 0.1 μg/ml, EDTA 0, 20 mM Tris-HCl pH 8.0), the “% Survival after 2 hr (S. mutans)” value is listed as 4.3%. The “% Survival 2 hr (L. monocytogenes)” value in the test on Listeria monocytogenes [4] (nisin 100 μg/ml, monooleate 0, 37° C.) is on record as 0.56%. In the test with Streptococcus mutans [5], the “% survival at 1 min. (S. mutans)” value was found to be 2.9%. Also, the “Percentage E. coli Survival at 2 hours” value with E. coli (nisin 30 μg/ml, EDTA 0, Triton X-100 0) stood at 27%; in the test on E. coli (nisin 100 μg/ml, EDTA 0, Triton X-100 0) it was 25%; in the test with E. coli (nisin 300 μg/ml, EDTA 0, Triton X-100 0) it was 8.5%. In addition, the “% Survival 2 hr (Coryneform bacteria)” value with Coryneform bacteria (nisin 3 μg/ml, EDTA 0) stood at 0.22%. Moreover, the “% Survival at 2 hours (S. typhimurium)” value in the test with S. typhimurium (Table 8 test 1: nisin 10 μg/ml, EDTA 0, BSA 0) stood at 51.3%; in the test with S. typhimurium (Table 8 test 1: nisin 100 μg/ml, EDTA 0, BSA 0) it was 1.6%; in the test with S. typhimurium (nisin 100 μg/ml, EDTA 0, 20 mM Tris pH 8.0 (Table 6)), 4%; in the test with S. typhimurium (nisin 100 μg/ml, EDTA 0, 50 mM sodium acetate pH 5.0) it was 0.6%. The “Percentage S. typhimurium Survival at 3 hours” value is listed as 51.3% with S. typhimurium (nisin 10 μg/ml, EDTA 0 mM); 7.0% in the test with S. typhimurium (nisin 50 μg/ml, EDTA 0 mM); 1.6% with S. typhimurium (nisin 100 μg/ml, EDTA 0 mM). Besides, the “% survival at 2 h (S. agalactiae)” value in the test with Streptococcus agalactiae (nisin 0.02 μg/ml, monolaurin 0, 37° C.) came to 100%; in the test on Streptococcus agalactiae (nisin 0.2 μg/ml, monolaurin 0, 37° C.), 2.2%. Moreover, the “bactericidal activity towards Streptococcus agalactiae” value with Streptococcus agalactiae (nisin at concentrations up to 0.2 μg/ml) is “does not exhibit significant bactericidal activity”. Moreover, the “% Survival after 2 hr (L. monocytogenes)” value in the test on Listeria monocytogenes [2] (nisin 3.0 μg/ml, EDTA 0) is recorded as 0.71%. Besides, the “% Survival at 2 hours, unadhered cells” value in test [3] (nisin 300 μg/ml, EDTA 0, pH 5.0) was found to be 0.1%; in test [3] (nisin 300 μg/ml, EDTA 0, pH 8.0) it was 7.5%; in test [3] (nisin 300 μg/ml, EDTA 0, pH 8.0, contains 1% BSA) it was 0.02%. The “% Survival at 2 hours (K. pneumoniae)” value in the test with K. pneumoniae (nisin 100 μg/ml, EDTA 0) came out at 50%; in the test on K. pneumoniae (nisin 300 μg/ml, EDTA 0), 38%.

Values taken from US5135910A, “Nisin compositions for use as enhanced, broad range bactericides” (The Public Health Research Institute of the City of New York, priority 1991, dated 1992).
